Like-named read-outs stand apart in the source and are kept apart here.

The target in data set [1] is T1, CYP2C9 (Homo sapiens, UniProt P11712). The data set can be described thus: in vitro. The following applies: both, microsomes, pH 7.4. Here is the method:
(§1) Briefly, 96-well incubation plates were prepared by adding inhibitors, substrates, and extracts (all dissolved in ethanol) to the respective wells. The 96-well plates were then placed on a thermoshaker (37°C, 500 rpm) until full evaporation of the solvent. […] HLM were thawed on ice, diluted in 100 mM phosphate buffer (pH 7.4) (final concentration 0.2 mg/mL), and added to the incubation plate that was prepared with the inhibitors and substrates. For preincubation, the plates were shaken at 500 rpm on an orbital shaker for 15 min at 37°C. […] The formation of hydroxylated metabolites was followed using UHPLC-MS/MS quantification with electrospray ionization in positive mode, as described in online supplementary material 2.
(§2) GraphPad Prism, version 9.0.1, was used for fitting of IC50 curves (inhibitor vs. normalized response, variable slope).

Data set [2] addresses T1, CYP2C9. The data set can be described thus: in vitro. The following applies: both, microsomes, pH 7.4. As to the method: as §1, §2
This is another data set of the same source.

For data set [3] the following is noted: at 0.5 mg/mL protein concentration; cited from earlier work.
Data set [4] concerns the target T2, CYP3A4 (Homo sapiens, UniProt P08684). The data set can be described thus: CYP inhibition assay in pooled HLM, specific substrate testosterone. Here is the method:
as §1, §2

The target in data set [5] is T2, CYP3A4. The following applies: read-out: Literature IC50 in pooled HLM; substrate testosterone; ref PMID 32587099; cited from earlier work.
For data set [6], the target named is T1, CYP2C9. Conditions: read-out: Literature Ki in pooled HLM; substrate warfarin; ref PMID 21356216; cited from earlier work.
In data set [7] the target is T1, CYP2C9. The data set can be described thus: CYP inhibition assay in pooled HLM, specific substrate tolbutamide. As to the method:
as §1, §2

T1 sequence (P11712 whole entry): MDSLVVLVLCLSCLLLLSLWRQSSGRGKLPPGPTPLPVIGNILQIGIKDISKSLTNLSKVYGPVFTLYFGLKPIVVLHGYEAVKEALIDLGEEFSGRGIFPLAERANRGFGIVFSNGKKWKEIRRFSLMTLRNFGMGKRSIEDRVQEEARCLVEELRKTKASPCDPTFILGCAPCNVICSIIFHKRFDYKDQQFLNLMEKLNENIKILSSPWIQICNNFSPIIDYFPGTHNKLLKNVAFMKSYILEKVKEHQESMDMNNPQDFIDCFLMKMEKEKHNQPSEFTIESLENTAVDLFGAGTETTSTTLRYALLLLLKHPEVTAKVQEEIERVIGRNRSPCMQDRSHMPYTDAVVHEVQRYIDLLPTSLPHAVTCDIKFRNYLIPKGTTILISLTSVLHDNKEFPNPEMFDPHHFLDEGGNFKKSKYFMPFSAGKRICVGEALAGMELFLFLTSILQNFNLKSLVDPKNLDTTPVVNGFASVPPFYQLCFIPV
T2 sequence (P08684 2-503 limits assumed): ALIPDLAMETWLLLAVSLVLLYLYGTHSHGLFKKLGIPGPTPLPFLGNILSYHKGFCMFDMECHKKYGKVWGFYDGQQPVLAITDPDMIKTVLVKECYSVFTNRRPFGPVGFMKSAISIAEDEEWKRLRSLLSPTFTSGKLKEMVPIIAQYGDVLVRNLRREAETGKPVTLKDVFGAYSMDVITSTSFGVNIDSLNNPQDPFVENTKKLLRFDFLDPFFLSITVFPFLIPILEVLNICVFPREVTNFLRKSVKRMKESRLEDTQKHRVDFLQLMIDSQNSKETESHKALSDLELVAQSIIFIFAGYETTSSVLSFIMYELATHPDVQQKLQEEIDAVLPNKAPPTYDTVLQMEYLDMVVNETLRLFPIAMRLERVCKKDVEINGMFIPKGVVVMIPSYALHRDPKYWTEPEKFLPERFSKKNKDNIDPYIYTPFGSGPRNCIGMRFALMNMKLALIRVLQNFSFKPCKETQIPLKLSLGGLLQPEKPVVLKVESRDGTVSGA

Turning to `C=C(C)[C@@H]1CCC(C)=C[C@H]1c1c(O)cc(CCCCC)cc1O` [CBD (pure), cannabidiol], the figures for the IC50 at 15 min in data set [1] and in data set [2] were more than 100 µM and 47 µM, respectively. Moreover, in data set [3], the fraction unbound (as a rule, the share of the substance not bound to proteins or other matrix) is recorded as 0.12.
For `CCCCCc1cc(O)c2c(c1)OC(C)(C)[C@@H]1CCC(C)=C[C@@H]21` [THC (pure), Δ9-tetrahydrocannabinol], the IC50 (usually the concentration that inhibits the measured activity by half) at 15 min was 73.3 µM in data set [1] and 6.9 µM in data set [2]. In addition, the fraction unbound in data set [3] was 0.05. The IC50 in data set [4] was 23.6 µM; in data set [5], 26.1 ± 6.78 µM; in data set [7], 0.081 µM. For the same compound, the Ki (in general, a dissociation constant, usually derived from enzyme kinetics or from competition with a known ligand) in data set [6] was 1.5 µM.
